Structures are written as SMILES. pIC50: −log10 of the molar value. Counter-ions that a name gives are not always drawn.

For one assay, the target named is T1, HCV NS3 protease (full length NS34a) (Hepatitis C virus genotype 1b, UniProt P26663).
T1 construct: The protease activity of the full length NS34a was measured using a FRET-based assay; made in house
T1 sequence (P26663 1658-1711): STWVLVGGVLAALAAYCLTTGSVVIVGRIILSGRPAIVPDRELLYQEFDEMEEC
T1 sequence (P26663 1027-1657): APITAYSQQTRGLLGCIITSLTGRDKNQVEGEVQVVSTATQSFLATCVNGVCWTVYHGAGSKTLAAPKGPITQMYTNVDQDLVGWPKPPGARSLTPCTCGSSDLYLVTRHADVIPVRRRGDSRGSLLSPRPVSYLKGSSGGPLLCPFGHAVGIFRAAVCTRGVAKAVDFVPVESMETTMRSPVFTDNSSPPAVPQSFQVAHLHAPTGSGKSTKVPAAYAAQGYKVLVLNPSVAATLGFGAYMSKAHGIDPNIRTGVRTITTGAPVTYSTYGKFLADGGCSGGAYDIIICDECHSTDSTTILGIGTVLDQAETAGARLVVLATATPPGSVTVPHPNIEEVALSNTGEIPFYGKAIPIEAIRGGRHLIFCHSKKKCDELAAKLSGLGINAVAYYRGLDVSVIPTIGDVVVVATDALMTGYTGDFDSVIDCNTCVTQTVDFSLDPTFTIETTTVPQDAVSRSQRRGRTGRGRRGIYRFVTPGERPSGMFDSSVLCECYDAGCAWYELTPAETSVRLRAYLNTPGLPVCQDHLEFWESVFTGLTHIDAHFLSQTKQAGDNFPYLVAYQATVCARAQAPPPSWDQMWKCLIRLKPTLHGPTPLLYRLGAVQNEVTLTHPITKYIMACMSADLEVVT
The assay can be described thus: HCV NS3 protease assay (FRET, full length NS34a). Type of assay: biochemical. The following applies: IC50 values of 10-150 μM against the protease activity of the full length NS34a, or at least 40% inhibition of protease activity at a concentration of 100 μM. On the procedure: The HCV NS3 protease functions have been extensively studied and are considered as potential targets for antiviral therapy: see for example the many references listed in the introductory section of this application. Therefore, the activity of the compounds of the invention as anti-HCV agents was assessed using a full length HCV NS3 protease.
The protease activity of the full length NS34a was measured using a FRET-based assay utilizing a peptide substrate derived from the NS4AB cleavage site (Anaspec) and labelled at one end with a quencher (QXL520) and at the other with a fluorophore (5-FAMsp). NS34a (produced in-house by literature methods) was incubated with test compounds and peptide substrate in 50 mM Tris pH8, 20 mM DTT, 1% CHAPS, 10% glycerol and 5% DMSO. The reaction was followed by monitoring the change in fluorescence on a Molecular Devices Gemini plate reader for 30 minutes at room temperature. Initial rates were calculated from the progress curves using SoftMax Pro (Molecular Devices). IC50 values were then calculated from replicate curves using Prism GraphPad software.
Turning to `CCC(NC(C)C1CC1)c1ccc(F)c(Oc2ccccc2)c1F` (stereo not drawn) [Example 36], the pIC50 – broadly, the IC50 on a negative log10 scale, so that one unit is a factor of ten – was 3.82 to 5.00.

`C[C@H](CC(N)=O)NCc1ccc(F)c(Oc2ccccc2)c1F` [Example 327] showed a pIC50 of 3.82 to 5.00.

Turning to `CC[C@@H](N[C@H](C)CC(=O)NCC(=O)OC)c1ccc(Cl)c(Oc2ccccc2)c1F` [Example 308], the pIC50 was 3.82 to 5.00.

With `CCC(NC1CCCC1)c1ccc(F)c(Oc2ccccc2)c1F` (stereo not drawn) [Example 30], the pIC50 is 3.82 to 5.00.

Regarding `CC[C@@H](N[C@H](C)CC(N)=O)c1ccc(Cl)c(Oc2cccc(CO)c2)c1F` [Example 117], the pIC50 is 3.82 to 5.00.

`CC[C@@H](N[C@H](C)CC(N)=O)c1ccc(Cl)c(Oc2ccc(N)c(C(F)(F)F)c2)c1F` [Example 259] gave a pIC50 of 3.82 to 5.00.

Regarding `N[C@@H](c1ccc(F)c(Oc2ccccc2)c1F)[C@@H]1CCC(=O)NC1` [Example 74B], the pIC50 is 3.82 to 5.00.

Consider `C[C@H](CC(N)=O)N[C@H](CC1CCOCC1)c1ccc(Cl)c(Oc2ccccc2)c1F` [Example 257], for which the pIC50 is 3.82 to 5.00.

Molecule `CC[C@@H](N[C@H](C)CC(N)=O)c1ccc(Cl)c(Oc2cccc(CNS(C)(=O)=O)c2)c1F` [Example 217] gave a pIC50 of 3.82 to 5.00.

As to `C[C@H](CC(N)=O)N[C@H](CCO)c1ccc(Cl)c(Oc2ccccc2)c1F` [Example 353], the pIC50 was 3.82 to 5.00.

In turn, `C[C@H](CC(N)=O)N[C@@H](CC1CCOCC1)c1ccc(Cl)c(Oc2ccccc2)c1F` [Example 258] had a pIC50 of 3.82 to 5.00.

In the case of `CCC(NCCOC)c1ccc(F)c(Oc2ccccc2)c1F` (stereo not drawn) [Example 42, [1-(2,4-Difluoro-3-phenoxy-phenyl)-propyl]-(2-methoxy-ethyl)-amine. hydrochloride], the pIC50 is 3.82 to 5.00.

Take `CC[C@@H](N[C@H](C)CC(=O)NC(C)(C)CO)c1ccc(Cl)c(Oc2ccccc2)c1F` [Example 269]: the pIC50 was 3.82 to 5.00.

Still in this assay, the particulars now being: protease activity of full length NS34a, FRET peptide substrate; read-out: Activity IC50.
As to `CC[C@H](Nc1ncc(CN)cn1)c1ccc(Cl)c(Oc2ccccc2)c1F` [Example 330], the negative-log IC50 (pIC50) was 5.96.

On to `C[C@H](CC(=O)NCCN)N[C@@H](CC1CCOCC1)c1ccc(Cl)c(Oc2ccccc2)c1F` [Example 351], for which the pIC50 was 5.19.

For the molecule `CC[C@@H](N)c1ccc(Cl)c(Oc2ccc(C(C)O)cc2)c1F` (stereo partly drawn) [Example 188], the pIC50 was 5.57.

On to `CC[C@H](N)c1ccc(Cl)c(Oc2cccc(C(=O)N(C)Cc3cn[nH]c3)c2)c1F` [Example 141, 3-[3-((S)-1-Amino-propyl)-6-chloro-2-fluoro-phenoxy]-N-methyl-N-(1H-pyrazol-4-ylmethyl)-benzamide.hydrochloride], for which the pIC50 is 5.55.

Regarding `CC[C@@H](N)c1ccc(Cl)c(Oc2cccc(C(N)=O)c2)c1F` [Example 172], the pIC50 was 5.43.

For the molecule `CC[C@@H](N)c1ccc(Cl)c(Oc2cccc(NC(=O)NCC(F)(F)F)c2)c1F` [Example 171, 1-{3-[3-((R)-1-Amino-propyl)-6-chloro-2-fluoro-phenoxy]-phenyl}-3-(2,2,2-trifluoro-ethyl)-urea.hydrochloride], the pIC50 is 5.11.

For `N[C@H](CCF)c1ccc(Cl)c(Oc2ccccc2)c1F` [Example 357, (R)-1-(4-Chloro-2-fluoro-3-phenoxy-phenyl)-3-fluoro-propylamine.hydrochloride], the pIC50 was 5.24.

With `CC[C@@H](N[C@H](C)CC(=O)NCCO)c1ccc(Cl)c(Oc2ccccc2)c1F` [Example 146], the pIC50 was 5.51.

With `CC[C@@H](N)c1ccc(Cl)c(Oc2cccc(CNC(C)=O)c2)c1F` [Example 173], the pIC50 is 5.46.

For `CC[C@@H](N[C@H](C)CC(N)=O)c1ccc(Cl)c(Oc2ccc(-c3cnco3)c(C)c2)c1F` [Example 318], the pIC50 was 5.19.

Take `N[C@@H](c1ccc(Cl)c(Oc2ccccc2)c1F)C1CCOCC1` [Example 356]: the pIC50 was 5.19.

In the case of `CC[C@@H](N)c1ccc(Cl)c(Oc2ccc(C)nc2)c1F` [Example 180], the pIC50 is 5.43.

Regarding `CC[C@@H](N[C@H](C)CC(N)=O)c1ccc(Cl)c(Oc2ccc3c(c2)OCC3)c1F` [Example 232], the pIC50 is 5.74.

Regarding `CC[C@@H](N)c1ccc(Cl)c(Oc2ccc(C(C)OC)cc2)c1F` (stereo partly drawn) [Example 184], the pIC50 is 5.21.

For the molecule `NC(C1=CCCCC1)c1ccc(F)c(Oc2ccccc2)c1F` (stereo not drawn) [Example 40], the pIC50 is 5.20.

With `CC[C@@H](N[C@@H](C)C(N)=O)c1ccc(Cl)c(Oc2ccccc2)c1F` [Example 54, (S)-2-[(R)-1-(4-Chloro-2-fluoro-3-phenoxy-phenyl)-propylamino]-propionamide hydrochloride], the pIC50 is 5.85.

Consider `C[C@@H](CC(N)=O)N[C@H](CCO)c1ccc(Cl)c(Oc2ccccc2)c1F` [Example 358], for which the pIC50 is 6.04.

`CCC(CC)[C@@H](N)c1ccc(Cl)c(Oc2ccccc2)c1F` [Example 346]: the pIC50 is 5.30.

Regarding `CC[C@@H](N)c1ccc(Cl)c(Oc2ccc(/C=N/O)cc2)c1F` [Example 204, 4-[3-((R)-1-Amino-propyl)-6-chloro-2-fluoro-phenoxy]-benzaldehyde oxime.hydrochloride], the pIC50 was 6.14.

For `CC[C@@H](N)c1ccc(Cl)c(Oc2cc[nH]c(=O)c2)c1F` [Example 218, 4-[3-((R)-1-Amino-propyl)-6-chloro-2-fluoro-phenoxy]-1H-pyridin-2-one. hydrochloride], the pIC50 is 5.09.

For `N[C@H](CCO)c1ccc(Cl)c(Oc2ccccc2)c1F` [Example 343], the pIC50 was 5.20.

For the molecule `CC[C@H](Nc1cccc2c1CNC2)c1ccc(F)c(Oc2ccccc2)c1F` [Example 136, [(S)-1-(2,4-Difluoro-3-phenoxy-phenyl)-propyl]-(2,3-dihydro-1H-isoindol-4-yl)-amine.hydrochloride], the pIC50 is 5.96.

Turning to `CC[C@@H](N)c1ccc(Cl)c(Oc2cccc(C(F)(F)F)c2)c1F` [Example 162], the pIC50 is 5.17.

Consider `CC[C@@H](N[C@H](C)CC(N)=O)c1ccc(Cl)c(Oc2ccc([N+](=O)[O-])cc2)c1F` [Example 202], for which the pIC50 was 5.27.

Consider `CC[C@@H](N)c1ccc(Cl)c(Oc2ccc(F)c(C(N)=O)c2)c1F` [Example 227, 5-[3-((R)-1-Amino-propyl)-6-chloro-2-fluoro-phenoxy]-2-fluoro-benzamide (R isomer).hydrochloride], for which the pIC50 is 5.66.

As to `CC[C@@H](N[C@H](C)CC(N)=O)c1ccc(Cl)c(Oc2ccc(C#N)cc2)c1F` [Example 185], the pIC50 was 5.82.

On to `CS(=O)(=O)Nc1cccc(Oc2c(F)ccc(CN[C@H]3CC[C@@H](N)CC3)c2F)c1` [Example 285], for which the pIC50 was 5.62.

As for `CC[C@@H](N)c1ccc(Cl)c(Oc2ccc(-c3cnco3)cc2)c1F` [Example 203, (R)-1-[4-Chloro-2-fluoro-3-(4-oxazol-5-yl-phenoxy)-phenyl]-propylamine.hydrochloride], the pIC50 was 5.80.

As for `CCC(NCc1cnc[nH]1)c1ccc(F)c(Oc2ccccc2)c1F` (stereo not drawn) [Example 37], the pIC50 is 5.25.

On to `CC[C@@H](N[C@@H](C)CC(N)=O)c1ccc(F)c(Oc2ccccc2)c1F` [Example 121], for which the pIC50 is 6.68.

In the case of `CC[C@@H](N[C@@H](C)CC(=O)NCCO)c1ccc(Cl)c(Oc2ccccc2)c1F` [Example 147], the pIC50 was 6.96.

As to `CC[C@@H](N[C@H](C)CC(N)=O)c1ccc(Cl)c(Oc2ccc3c(c2)C(C)(C)CN3)c1F` [Example 323], the pIC50 was 5.51.

Values taken from US20140288040A1, “SUBSTITUTED BENZYLAMINE COMPOUNDS, THEIR USE IN MEDICINE, AND IN PARTICULAR THE TREATMENT OF HEPATITIS C VIRUS (HCV) INFECTION” (ASTEX THERAPEUTICS LIMITED, priority 2011, published 2014).
